These results are taken from patent publication US12122761B2, “2-azaspiro[3.4]octane derivatives as M4 agonists” (NOVARTIS AG, priority 2019, dated 2024).

As a reminder, the EC50 is the midpoint of the concentration-response curve.

The target in experiment [1] is T1, human cloned CHRM4 receptor (M4_CHO cells) (Homo sapiens, UniProt P08173).
T1 construct: expressed in transfected cells; host or cells: CHO-K1
T1 sequence (P08173 1-479): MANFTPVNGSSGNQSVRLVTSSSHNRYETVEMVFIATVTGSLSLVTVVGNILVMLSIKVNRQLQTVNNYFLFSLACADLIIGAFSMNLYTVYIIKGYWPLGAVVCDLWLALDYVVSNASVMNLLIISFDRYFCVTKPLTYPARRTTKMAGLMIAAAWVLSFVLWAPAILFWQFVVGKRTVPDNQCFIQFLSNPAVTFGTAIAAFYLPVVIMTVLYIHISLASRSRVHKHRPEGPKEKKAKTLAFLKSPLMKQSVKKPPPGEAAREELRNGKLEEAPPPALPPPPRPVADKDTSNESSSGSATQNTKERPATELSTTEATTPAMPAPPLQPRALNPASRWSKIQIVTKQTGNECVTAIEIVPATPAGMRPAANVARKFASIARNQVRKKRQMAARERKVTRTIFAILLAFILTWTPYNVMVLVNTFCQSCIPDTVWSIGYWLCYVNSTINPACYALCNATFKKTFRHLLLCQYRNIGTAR
In words: CHRM4 Ca++ Flux Assay (agonist mode, FDSS 7000EX). In kind it is cell-based. The following applies: for M4 FDSS PA: Percent Activity; for EC50: geometric mean if tested more than once, read-out: M4 FDSS EC50. Put shortly: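 Agonist-mode response was expressed as percent of the Carbachol EC100 and fitted with four-parameter nonlinear regression over an 11-point triplicate dose series. Intracellular Ca++ was tracked for 3 min by fluorescent dye in CHO-K1 cells stably expressing human CHRM4. Cells were preincubated 60 min with 20 μM ATP in buffer containing 2.5 mM probenecid.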

For experiment [2], the target named is T2, human cloned CHRM3 receptor (M3_CHO cells) (Homo sapiens, UniProt P20309).
T2 construct: expressed in transfected cells; host or cells: CHO-K1
In words: CHRM3 Ca++ Flux Assay (agonist mode, FDSS 7000EX). The experiment is classed as cell-based. The conditions noted are these: for M3 FDSS PA: Percent Activity measured to EC100 of Carbachol; for EC50: agonist mode, geometric mean if tested more than once, read-out: M3 FDSS EC50. Summed up:
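Agonist responses are measured as calcium mobilization in CHO-K1 cells expressing human M3 or M5, tested over an 11-point dose range in triplicate. Percent activity is normalised to carbachol at EC100.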

T2 sequence (P20309 whole entry): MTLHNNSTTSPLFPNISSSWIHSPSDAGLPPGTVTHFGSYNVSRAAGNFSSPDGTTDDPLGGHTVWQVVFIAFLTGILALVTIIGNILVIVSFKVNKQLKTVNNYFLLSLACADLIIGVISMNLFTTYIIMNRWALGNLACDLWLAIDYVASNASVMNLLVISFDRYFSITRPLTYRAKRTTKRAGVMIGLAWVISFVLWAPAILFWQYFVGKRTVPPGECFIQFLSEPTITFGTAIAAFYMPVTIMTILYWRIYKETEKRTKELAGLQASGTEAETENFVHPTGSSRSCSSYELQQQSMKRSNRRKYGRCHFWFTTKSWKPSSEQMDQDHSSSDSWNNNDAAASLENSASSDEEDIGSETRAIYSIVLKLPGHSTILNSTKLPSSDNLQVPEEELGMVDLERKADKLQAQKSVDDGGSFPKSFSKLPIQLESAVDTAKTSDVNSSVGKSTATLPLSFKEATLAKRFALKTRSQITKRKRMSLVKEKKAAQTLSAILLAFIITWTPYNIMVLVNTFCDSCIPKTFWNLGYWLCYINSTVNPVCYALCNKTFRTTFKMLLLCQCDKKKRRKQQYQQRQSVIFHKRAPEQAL

As for `O=C(N1CC2(CC[C@@H](N3CCC(c4ccccc4OC4CCOCC4)CC3)C2)C1)C1(F)CC1` (single isomer, unassigned) [Example 9F, (R)-(1-fluorocyclopropyl)(6-(4-(2-((tetrahydro-2H-pyran-4-yl)oxy)phenyl)piperidin-1-yl)-2-azaspiro[3.4]octan-2-yl)methanone or (S)-(1-fluorocyclopropyl)(6-(4-(2-((tetrahydro-2H-pyran-4-yl)oxy)phenyl)piperidin-1-yl)-2-azaspiro[3.4]octan-2-yl)methanone], in experiment [1], the “M4 FDSS PA” value came out at 47% and the concentration giving a half-maximal response (EC50) was 156 nM. Moreover, in experiment [2], the “M3 FDSS PA” value is recorded as 0% and the EC50 is greater than 25000 nM.

Regarding `O=C(N1CC2(CC[C@@H](N3CCC(c4ccccc4C4(O)CCOCC4)CC3)C2)C1)C1(F)CC1` (single isomer, unassigned) [Example 9G, (R)-(1-fluorocyclopropyl)(6-(4-(2-(4-hydroxytetrahydro-2H-pyran-4-yl)phenyl)piperidin-1-yl)-2-azaspiro[3.4]octan-2-yl)methanone or (S)-(1-fluorocyclopropyl)(6-(4-(2-(4-hydroxytetrahydro-2H-pyran-4-yl)phenyl)piperidin-1-yl)-2-azaspiro[3.4]octan-2-yl)methanone], in experiment [1], the “M4 FDSS PA” value was 14% and the EC50 worked out at 76 nM. Further, in experiment [2], the “M3 FDSS PA” value is given as 0% and the EC50 is greater than 25000 nM.

As for `O=C(N1CC2(CC[C@@H](N3CCC(c4ccccc4C4(O)CCOCC4)CC3)C2)C1)C1(F)CC1` (single isomer, unassigned) [Example 9H, (R)-(1-fluorocyclopropyl)(6-(4-(2-(4-hydroxytetrahydro-2H-pyran-4-yl)phenyl)piperidin-1-yl)-2-azaspiro[3.4]octan-2-yl)methanone or (S)-(1-fluorocyclopropyl)(6-(4-(2-(4-hydroxytetrahydro-2H-pyran-4-yl)phenyl)piperidin-1-yl)-2-azaspiro[3.4]octan-2-yl)methanone], in experiment [1], the “M4 FDSS PA” value turned out to be 0% and the EC50 is greater than 25000 nM. Besides, in experiment [2], the “M3 FDSS PA” value was 0% and the EC50 is greater than 25000 nM.

On to `O=C(N1CC2(CC[C@@H](N3CCC(c4cc(F)ccc4C4(O)CCOCC4)CC3)C2)C1)C1(F)CC1` (single isomer, unassigned) [Example 9I, (R)-(6-(4-(5-fluoro-2-(4-hydroxytetrahydro-2H-pyran-4-yl)phenyl)piperidin-1-yl)-2-azaspiro[3.4]octan-2-yl)(1-fluorocyclopropyl)methanone or (S)-(6-(4-(5-fluoro-2-(4-hydroxytetrahydro-2H-pyran-4-yl)phenyl)piperidin-1-yl)-2-azaspiro[3.4]octan-2-yl)(1-fluorocyclopropyl)methanone], for which, in experiment [1], the “M4 FDSS PA” value stood at 17% and the EC50 turned out to be 15 nM. Moreover, in experiment [2], the “M3 FDSS PA” value came out at 0% and the EC50 was greater than 25000 nM.

For the compound `O=C(N1CC2(CC[C@@H](N3CCC(c4cc(F)ccc4C4(O)CCOCC4)CC3)C2)C1)C1(F)CC1` (single isomer, unassigned) [Example 9J, (R)-(6-(4-(5-fluoro-2-(4-hydroxytetrahydro-2H-pyran-4-yl)phenyl)piperidin-1-yl)-2-azaspiro[3.4]octan-2-yl)(1-fluorocyclopropyl)methanone or (S)-(6-(4-(5-fluoro-2-(4-hydroxytetrahydro-2H-pyran-4-yl)phenyl)piperidin-1-yl)-2-azaspiro[3.4]octan-2-yl)(1-fluorocyclopropyl)methanone], in experiment [1], the “M4 FDSS PA” value is 1% and the 50% effective concentration (EC50) came to 241 nM. In experiment [2], the “M3 FDSS PA” value is given as 0% and the EC50 was greater than 25000 nM.

Regarding `O=C(N1CC2(CC[C@@H](N3CCC(c4cc(F)ccc4C4CCOCC4)CC3)C2)C1)C1(F)CC1` (single isomer, unassigned) [Example 9K, (R)-(6-(4-(5-fluoro-2-(tetrahydro-2H-pyran-4-yl)phenyl)piperidin-1-yl)-2-azaspiro[3.4]octan-2-yl)(1-fluorocyclopropyl)methanone or (S)-(6-(4-(5-fluoro-2-(tetrahydro-2H-pyran-4-yl)phenyl)piperidin-1-yl)-2-azaspiro[3.4]octan-2-yl)(1-fluorocyclopropyl)methanone], in experiment [1], the “M4 FDSS PA” value stood at 56% and the EC50 is 1 nM. In addition, in experiment [2], the “M3 FDSS PA” value is on record as −1% and the EC50 was greater than 25000 nM.

Regarding `O=C(N1CC2(CC[C@@H](N3CCC(c4cc(F)ccc4C4CCOCC4)CC3)C2)C1)C1(F)CC1` (single isomer, unassigned) [Example 9L, (R)-(6-(4-(5-fluoro-2-(tetrahydro-2H-pyran-4-yl)phenyl)piperidin-1-yl)-2-azaspiro[3.4]octan-2-yl)(1-fluorocyclopropyl)methanone or (S)-(6-(4-(5-fluoro-2-(tetrahydro-2H-pyran-4-yl)phenyl)piperidin-1-yl)-2-azaspiro[3.4]octan-2-yl)(1-fluorocyclopropyl)methanone], in experiment [1], the “M4 FDSS PA” value is listed as 49% and the EC50 was found to be 26 nM. Besides, in experiment [2], the “M3 FDSS PA” value was 0% and the EC50 is greater than 25000 nM.

For `Fc1cncc(N2CC3(CC[C@@H](N4CCC(c5cc(F)ccc5OC5CCOCC5)CC4)C3)C2)c1` (single isomer, unassigned) [Example 10A, (R)-6-(4-(5-fluoro-2-((tetrahydro-2H-pyran-4-yl)oxy)phenyl)piperidin-1-yl)-2-(5-fluoropyridin-3-yl)-2-azaspiro[3.4]octane or (S)-6-(4-(5-fluoro-2-((tetrahydro-2H-pyran-4-yl)oxy)phenyl)piperidin-1-yl)-2-(5-fluoropyridin-3-yl)-2-azaspiro[3.4]octane], in experiment [1], the “M4 FDSS PA” value amounted to 60% and the EC50 turned out to be 5 nM. Moreover, in experiment [2], the “M3 FDSS PA” value worked out at 0% and the EC50 was greater than 25000 nM.

Regarding `Fc1cncc(N2CC3(CC[C@@H](N4CCC(c5cc(F)ccc5OC5CCOCC5)CC4)C3)C2)c1` (single isomer, unassigned) [Example 10B, (R)-6-(4-(5-fluoro-2-((tetrahydro-2H-pyran-4-yl)oxy)phenyl)piperidin-1-yl)-2-(5-fluoropyridin-3-yl)-2-azaspiro[3.4]octane or (S)-6-(4-(5-fluoro-2-((tetrahydro-2H-pyran-4-yl)oxy)phenyl)piperidin-1-yl)-2-(5-fluoropyridin-3-yl)-2-azaspiro[3.4]octane], in experiment [1], the “M4 FDSS PA” value amounted to 41% and the EC50 was determined as 45 nM. Further, in experiment [2], the “M3 FDSS PA” value was 0% and the EC50 is greater than 25000 nM.

For `Fc1ccc(C2CCOCC2)c(C2CCN([C@@H]3CCC4(C3)CN(c3cncnc3)C4)CC2)c1` (single isomer, unassigned) [Example 10C, (R)-6-(4-(5-fluoro-2-(tetrahydro-2H-pyran-4-yl)phenyl)piperidin-1-yl)-2-(pyrimidin-5-yl)-2-azaspiro[3.4]octane or (S)-6-(4-(5-fluoro-2-(tetrahydro-2H-pyran-4-yl)phenyl)piperidin-1-yl)-2-(pyrimidin-5-yl)-2-azaspiro[3.4]octane], in experiment [1], the “M4 FDSS PA” value stood at 62% and the EC50 was less than 0.4 nM. Moreover, in experiment [2], the “M3 FDSS PA” value was determined as 0% and the EC50 is greater than 25000 nM.

In the case of `Fc1ccc(C2CCOCC2)c(C2CCN([C@@H]3CCC4(C3)CN(c3cncnc3)C4)CC2)c1` (single isomer, unassigned) [Example 10D, (R)-6-(4-(5-fluoro-2-(tetrahydro-2H-pyran-4-yl)phenyl)piperidin-1-yl)-2-(pyrimidin-5-yl)-2-azaspiro[3.4]octane or (S)-6-(4-(5-fluoro-2-(tetrahydro-2H-pyran-4-yl)phenyl)piperidin-1-yl)-2-(pyrimidin-5-yl)-2-azaspiro[3.4]octane], in experiment [1], the “M4 FDSS PA” value was 50% and the half-maximal effective concentration (EC50) worked out at 25 nM. In experiment [2], the “M3 FDSS PA” value was 0% and the EC50 is greater than 25000 nM.

For `Fc1ccc(OC2CC3(COC3)C2)c(C2CCN([C@@H]3CCC4(C3)CN(c3cncnc3)C4)CC2)c1` (single isomer, unassigned) [Example 10E, (R)-6-(4-(2-((2-oxaspiro[3.3]heptan-6-yl)oxy)-5-fluorophenyl)piperidin-1-yl)-2-(pyrimidin-5-yl)-2-azaspiro[3.4]octane or (S)-6-(4-(2-((2-oxaspiro[3.3]heptan-6-yl)oxy)-5-fluorophenyl)piperidin-1-yl)-2-(pyrimidin-5-yl)-2-azaspiro[3.4]octane], in experiment [1], the “M4 FDSS PA” value worked out at 59% and the EC50 is 27 nM. Further, in experiment [2], the “M3 FDSS PA” value is 0% and the EC50 was greater than 25000 nM.
